Common to all, as to assay type: cell-based
Assay [1] is described as follows: Inhibition of human ERG td[wt:F656A] mutant expressed in HEK293 cells by whole cell patch clamp method.
Assay [2] is described as follows: Inhibition of human ERG td[wt:Y652A] mutant expressed in HEK293 cells by whole cell patch clamp method.
Assay [3] has as its system HEK293. Put plainly: Binding affinity to human ERG td[wt:F656A] mutant expressed in HEK293 cells assessed as blockade of membrane current at 0.05 uM by whole cell patch clamp method.
The subject of assay [4] is HEK293. Put plainly: Binding affinity to human ERG td[wt:Y652A] mutant expressed in HEK293 cells assessed as blockade of membrane current at 0.2 uM by whole cell patch clamp method.
Assay [5] addresses Voltage-gated inwardly rectifying potassium channel KCNH2 (Homo sapiens, UniProt Q12809). Put plainly: Inhibition of human ERG expressed in HEK293 cells by whole cell patch clamp method.

pIC50: −log10 of the molar value. Active and inactive are the calls of the source. The calls are words filed in the database; no cut-off is given here.

Sequence of Voltage-gated inwardly rectifying potassium channel KCNH2 (Q12809 whole entry): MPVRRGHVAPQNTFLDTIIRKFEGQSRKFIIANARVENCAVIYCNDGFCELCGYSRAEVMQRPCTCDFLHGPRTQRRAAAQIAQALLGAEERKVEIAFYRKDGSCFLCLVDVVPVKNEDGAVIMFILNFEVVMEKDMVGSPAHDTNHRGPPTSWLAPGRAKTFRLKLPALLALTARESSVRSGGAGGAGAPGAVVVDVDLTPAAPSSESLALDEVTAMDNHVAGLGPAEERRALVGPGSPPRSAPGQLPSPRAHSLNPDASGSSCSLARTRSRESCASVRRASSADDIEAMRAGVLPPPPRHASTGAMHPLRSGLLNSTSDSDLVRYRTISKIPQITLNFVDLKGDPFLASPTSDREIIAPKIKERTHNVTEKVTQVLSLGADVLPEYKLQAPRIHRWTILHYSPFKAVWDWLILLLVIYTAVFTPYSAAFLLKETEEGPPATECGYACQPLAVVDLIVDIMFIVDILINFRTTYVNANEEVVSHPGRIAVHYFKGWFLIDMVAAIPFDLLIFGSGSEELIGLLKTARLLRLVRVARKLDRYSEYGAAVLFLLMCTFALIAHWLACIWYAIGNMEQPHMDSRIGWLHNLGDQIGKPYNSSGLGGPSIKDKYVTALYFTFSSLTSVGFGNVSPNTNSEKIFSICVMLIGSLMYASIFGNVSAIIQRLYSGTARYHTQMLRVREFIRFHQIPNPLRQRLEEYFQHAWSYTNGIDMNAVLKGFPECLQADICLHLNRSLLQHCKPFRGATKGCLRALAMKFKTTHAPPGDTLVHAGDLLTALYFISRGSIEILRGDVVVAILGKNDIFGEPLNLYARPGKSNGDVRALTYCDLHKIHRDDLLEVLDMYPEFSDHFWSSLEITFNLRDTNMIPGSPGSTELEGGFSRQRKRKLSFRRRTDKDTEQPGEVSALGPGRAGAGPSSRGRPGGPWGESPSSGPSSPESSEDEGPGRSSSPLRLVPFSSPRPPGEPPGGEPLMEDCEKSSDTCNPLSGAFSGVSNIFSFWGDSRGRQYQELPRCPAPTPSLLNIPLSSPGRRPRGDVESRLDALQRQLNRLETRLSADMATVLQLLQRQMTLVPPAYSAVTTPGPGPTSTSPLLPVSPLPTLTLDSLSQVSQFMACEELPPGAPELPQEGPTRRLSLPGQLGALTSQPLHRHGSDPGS

On to `CC(C)(C)c1ccc(C(O)CCCN2CCC(C(O)(c3ccccc3)c3ccccc3)CC2)cc1` (centres undefined) [TERFENADINE], for which the pIC50 in assay [1] and in assay [2] was 7.52 each time.
With `Cc1cccc(CCN2CCC(C(=O)c3ccc(NS(C)(=O)=O)cc3)CC2)n1`, the pIC50 in assay [1] was 7.70; in assay [2] it was 6.60.
On to `COc1cc(N)c(Cl)cc1C(=O)NC1CCN(CCCOc2ccc(F)cc2)CC1OC` (centres undefined) [CISAPRIDE], for which the outcome in assay [3] and in assay [4] was Active. The pIC50 was 8.00 in assay [1] and 6.74 in assay [2].
Consider `CCOc1cc(N)c(Cl)cc1C(=O)NCC1CN(Cc2ccc(F)cc2)CCO1` (centres undefined) [MOSAPRIDE], for which the pIC50 in assay [5] was 5.32.

The values are drawn from ChEMBL document CHEMBL1152811, “Docking model of drug binding to the human ether-à-go-go potassium channel guided by tandem dimer mutant patch-clamp data: a synergic approach” (J Med Chem, 2009).
